Here are results for 100 molecules from PubChem BioAssay AID2253 (Southern Research Specialized Biocontainment Screening …, 2010).

Broadly, the EC50 is the concentration needed to bring the measured effect to its halfway point.

Where “and” joins values, the source holds several entries; their conditions need not be identical. Equal values may be shown once.

In this assay the test system is THP-1 viability, CellTiter-Glo luminescence, 72 h. The assay is described as follows: human monocytic cell viability reduction – S. typhimurium screen hits, cytotoxicity control for Salmonella PhoP regulon inhibitors, dose response (AID 2253).
Regarding `CCOC(=O)C1=Nc2ccccc2C1=[N+]=[N-]`, the EC50 is 27.2 µM.
Turning to `Cc1ccc(C(C)C)c(OCC(=O)N2CCN(Cc3nc4cc([N+](=O)[O-])ccc4n3C)CC2)c1`, the EC50 is 25.9 µM.
For `CC1CCN(c2ccc(NC(=S)NC(=O)c3ccc(-c4cccc([N+](=O)[O-])c4)o3)cc2)CC1` the value was 23.1 µM.
For `CCCCCCCCCCCCCCCC[n+]1ccc(/C=N/O)cc1` the value was 0.37 µM.
Turning to `Cc1ccsc1C=Nc1ccc(O)cc1`, the EC50 was 25.9 µM.
For the molecule `O=C(c1cccs1)c1no[n+]([O-])c1C(=O)c1cccs1`, the EC50 was 2.61 µM.
For `O=C(N/N=C/c1cc2c3c(c1O)CCCN3CCC2)c1ccccc1O` the value was 3.56 µM; for `Cc1ccc(NC(=O)NCC2CCN(Cc3cccc(Cl)c3)CC2)cc1Cl`, 13.9 µM.
Under `O=C(Nc1nc(-c2ccccn2)cs1)c1ccc(Cl)s1` stands 0.8 µM; under `COc1ccccc1Nc1nc(NCc2ccco2)c2ccccc2n1`, 16.2 µM.
For `O=Cc1ccc(O)c2ncccc12` the value was 3.79 µM.
Turning to `Nc1nc2ccccc2n1Cc1ccc(Cl)c(Cl)c1`, the EC50 is 24.4 µM.
With `Oc1c(C(Nc2nc3ccccc3s2)c2ccco2)ccc2cccnc12` (stereo not given), the EC50 is 0.65 µM.
Turning to `CC1(C)SC(=S)N(NC(=O)Nc2ccccc2)C1N(O)C(=O)Nc1ccccc1` (stereo not given), the EC50 is 37.8 µM.
`CCn1c2ccccc2c2cc(N)ccc21`: the EC50 was 16.1 µM.
For `Cc1ccc(Nc2nc(NCc3ccco3)c3ccccc3n2)cc1` the value was 4.34 µM.
Under `Cc1ccc(Nc2nc(N)c3ccccc3n2)cc1Cl` stands 16.3 µM.
For `CCCCC(CC)CN=C(N)NC(N)=NCCCCCCN=C(N)NC(N)=NCC(CC)CCCC` (stereo not given) the value was 1.9 µM; for `O=C(N/N=C/c1ccc(F)cc1)c1cc(-c2ccco2)nc2ccccc12`, 37.9 µM; for `Oc1c(C(Nc2ccccn2)c2ccccn2)ccc2cccnc12` (stereo not given), 4.23 µM.
With `Cc1ccc(-c2cc(-c3ccc(Cl)cc3)c(C#N)c(N)n2)o1`, the EC50 is 26.2 µM.
As to `O=c1[nH]c(NCc2ccco2)nnc1Cc1ccccc1Cl`, the EC50 was 6.65 µM.
For `OC(c1cc(-c2ccc(C(F)(F)F)cc2)nc(C(F)(F)F)c1)C1CCCCN1` (stereo not given) the value was 6.15 µM.
With `COc1ccc(OCCSc2nnc3sc4ccccc4n23)cc1`, the EC50 is 44.1 µM.
As for `CCCCCCCCCCCCCCCCn1cc[n+](C)c1`, the EC50 was 0.37 µM.
For `Cc1ccc2[nH]c3c(NCc4ccccc4)ncnc3c2c1` the value was 17.1 µM; for `COc1ccc(C(=O)On2c(-c3ccc(Br)cc3)nc3ccccc3c2=O)cc1`, 12.8 µM; for `Cc1ccc(S(=O)(=O)N(CC(=O)N=Nc2c(O)[nH]c3ccccc23)c2ccc(C)c(C)c2)cc1`, 12.4 µM.
For the molecule `O=[N+]([O-])c1ccc(Sc2nc3ccccc3o2)c([N+](=O)[O-])c1`, the EC50 was 1.94 µM.
Under `Cc1ccc(O)c(-c2cc(-c3cccc(F)c3)n[nH]2)c1` stands 18.2 µM; under `O=C(N/N=C/c1ccc([N+](=O)[O-])o1)c1ccc(O)cc1`, 12 µM.
Under `COc1ccc(C(=O)N/N=C/c2sc3ccccc3c2O)cc1` stands 3.13 µM; under `CCCCCCCCCC[N+](C)(C)CC/C=C1/c2ccccc2Sc2ccc(Cl)cc21`, 1.67 µM.
Under `Cc1[nH]n(-c2ccccc2)c(=O)c1/C=N/Nc1nncc(-c2ccccc2)n1` stands 0.57 µM; under `c1ccc(-c2nnc(-c3ccccn3)nc2NC2CCCCC2)cc1`, 1.37 µM.
Turning to `C/C(=N\NC(=S)Nc1ccc(F)cc1)c1ccc2c(c1)OCCO2`, the EC50 was 10.5 µM.
For `CC(C)CCNC(=S)Nc1ccc([N+](=O)[O-])cc1` the value was 16.5 µM.
Under `C/C(CC(=O)Nc1ccc(Cl)c(C(F)(F)F)c1)=N\NC(=O)c1ccccc1O` stands 20.4 µM; under `CC(C)(C)c1ccc(C(=O)NC(=S)NCc2cccnc2)cc1`, 46.5 µM.
Under `CN(C)CC(C(=O)c1ccccc1)c1ccccc1` (stereo not given) stands 4.94 µM; under `Fc1ccc(Nc2nc(NCc3ccco3)c3ccccc3n2)cc1`, 6.54 µM.
As to `Nc1cc(Cl)c2nonc2c1[N+](=O)[O-]`, the EC50 is 2.24 µM.
Consider `O=C(Cc1n[nH]c(=O)c2ccccc12)OCC(=O)c1ccc2c(c1)OCCO2`, for which the EC50 is 1.34 µM.
On to `c1ccc2c(CCNCc3ccc4c(c3)OCO4)c[nH]c2c1`, for which the EC50 was 24.2 µM.
Under `Cc1cc(-c2nnc(-c3ccccc3)c(-c3ccccc3)n2)c(C)o1` stands 40.3 µM.
Regarding `O=C1NC(=S)S/C1=C\C=C\c1ccc([N+](=O)[O-])o1`, the EC50 is 9.07 µM.
Consider `C[CH2][Hg][S]c1ccccc1C(=O)O`, for which the EC50 was 0.71 µM.
As for `COc1ccc(OC)c(C2C=C(C34CC5CC(CC(C5)C3)C4)NC(=S)N2)c1` (stereo not given), the EC50 was 49.8 µM.
As to `c1ccc2c(c1)Sc1ccccc1N2CC1CN2CCC1CC2` (stereo not given), the EC50 is 7.93 µM.
For `COc1ccc(OC)c(C2=Nn3c(nnc3-c3cc(OC)c(OC)c(OC)c3)SC2)c1` the value was 22.6 µM; for `CCCCOc1ccc(CSC(=N)N)cc1[N+](=O)[O-]`, 16.5 µM.
For `O=[N+]([O-])c1cc(/C=N/Nc2nc3ccccc3[nH]2)c(O)cc1O` the value was 1.21 µM.
Under `CCCCCOc1ccc(Br)cc1CSC(=N)N` stands 1.86 µM; under `Cc1ccc(C(=O)O)cc1N=Cc1cc(Br)cc(Br)c1O`, 37.2 µM.
With `COC(=O)c1c(C)oc2ccc(NS(=O)(=O)c3cccs3)cc12`, the EC50 is 48.4 µM.
For `CCCCCCCOC(=O)C[N+](C)(C)CCOC1CC2CCC1(C)C2(C)C` (stereo not given) the value was 2.07 µM; for `O=C(N/N=C/c1ccc(O)cc1O)C(=O)N/N=C/c1ccc(O)cc1O`, 6.9 µM; for `N=c1n(CC(=O)c2ccc([N+](=O)[O-])cc2)c2ccccc2n1Cc1ccccc1`, 14.3 µM.
Under `Cc1ccc(C)c(-c2nc3ccc(N)cc3[nH]2)c1` stands 10.5 µM.
With `NC1=NC[C@H](Cc2ccc(O)cc2)N1CCCCC1CCCCC1`, the EC50 is 2.63 µM.
On to `CCCCCCCCn1c2c(c(=N)c3c1CCC3)CCCC2`, for which the EC50 was 0.78 µM.
Under `CCCCC1(CCCC)C(=O)NC(=Nc2cccc(C)c2)NC1=O` stands 39.1 µM; under `Cc1ccccc1Nc1cc(C)c2c(O)cccc2n1`, 7.56 µM.
For `Oc1ccc(/C=N/Nc2nccnc2Cl)c(O)c1` the value was 1.39 µM.
Consider `CC(C(=O)NC1CCS(=O)(=O)C1)N1C(=O)/C(=C/c2ccc(Cl)cc2)SC1=S` (stereo not given), for which the half-maximal effective concentration (EC50) is 48.9 µM.
For `COc1ccc(/C=C/C(=O)NC(=S)NNC(=O)c2cnccn2)cc1`, the EC50 was 2.02 µM.
Regarding `Cc1cc(Nc2ccccc2)nc2cc(O)ccc12`, the concentration for a half-maximal effect (EC50) is 36.6 µM.
As for `OCCN1CCN(Cc2cc(Cl)c3cccnc3c2O)CC1`, the EC50 is 12 µM.
Under `C#CCN1C(=O)C(O)(CC(=O)c2ccc(OC)c(OC)c2)c2ccccc21` (stereo not given) stands 30.5 µM.
As to `COc1cccc(Cn2cnc3c(NS(=O)(=O)c4cccc(Cl)c4Cl)c(C)c(C)cc32)c1`, the EC50 is 40.4 µM.
Under `Cc1ccc(-n2sc3ccccc3c2=O)cc1S(=O)(=O)N1CCCCC1` stands 2.75 µM.
For `O=C(NCCN1CCOCC1)c1ccc2ccccc2c1` the value was less than 0.1 µM.
For `c1ccc(Cc2nnc(-c3ccccc3)o2)cc1`, the EC50 is 30.7 µM.
Take `CCCCCCCCCCCCCCCC[N+](C)(C)CCN(Cc1ccc(OC)cc1)c1ncccn1`: the 50% effective concentration (EC50) was 0.51 µM.
Under `O=S(=O)(Nc1cc(Sc2cccc3cccnc23)c(O)c2ccccc12)c1ccc(F)cc1` stands 2.82 µM; under `COc1cc(C(=O)NC(=S)Nc2ccc3oc(=O)ccc3c2)cc(OC)c1OC`, 45.9 µM; under `CC(=O)NC(c1ccc2ccccc2c1)c1ccc2cccnc2c1O` (stereo not given), 0.24 µM.
Under `CNc1nc(-c2ccccn2)nnc1-c1ccccc1` stands 8.38 µM.
For `CC[n+]1c(/C=C/N(C)c2ccccc2)n(-c2ccccc2)c2ccc(-c3nc4ccccc4s3)cc21`, the EC50 is 0.46 µM.
Under `O=C(N/N=C/c1cc([N+](=O)[O-])ccc1O)C1CC1` stands 26 µM.
Regarding `CCCCCCOC(=O)C[N+](C)(C)CCOC1CC2CCC1(C)C2(C)C` (stereo not given), the EC50 was 2.8 µM.
For `O=S1(=O)CCC(NC(=S)SCCOc2ccccc2)C1` (stereo not given) the value was 16.2 µM; for `Cc1nnc(N/N=C/c2ccccn2)[nH]c1=O`, 0.81 µM; for `O=C(c1ccccc1)C(CN1CCCC1)c1ccccc1` (stereo not given), 5.56 µM.
For `OCCCNc1nc(-c2ccc(Cl)cc2)nnc1-c1ccc(Br)cc1` the value was 19.8 µM; for `Cc1ccc(C=Nc2ccccc2C(N)=O)cc1`, 8.83 µM.
For `CC1OC(Nc2cccc3ccccc23)C(O)C(O)C1O` (stereo not given) the value was 12 µM; for `O=C(c1[nH]ncc1-c1ccc(Cl)cc1)C1CO1` (stereo not given), 13.3 µM; for `Oc1ccc(Br)cc1-c1nc2cnccn2c1NC1CCCCC1`, 46.4 µM.
With `Cc1cc(C(=O)NNC(=S)NC(=O)/C=C/c2ccccc2Cl)n[nH]1`, the EC50 was 23.6 µM.
Under `COC(=O)C(C)NC(=S)N1CCN(c2c(F)cc3c(=O)c(C(=O)O)cn(C4CC4)c3c2OC)CC1C` (stereo not given) stands 20 µM; under `CO[C@H]1C=CO[C@@]2(C)Oc3c(C)c(O)c4c(O)c(c(C=NN5CCN(C)CC5)c(O)c4c3C2=O)NC(=O)C(C)=CC=C[C@H](C)[C@H](O)[C@@H](C)[C@@H](O)[C@@H](C)[C@H](OC(C)=O)[C@@H]1C`, 33 µM; under `CCCCCCC(=O)N(O)C1CC(=O)N(c2ccc(C)cc2)C1=O` (stereo not given), 30.6 µM.
`CCCCCCCCCCOC(=O)Cn1c(COc2ccc(OC)cc2)[n+](C)c2ccccc21`: the EC50 was 3.17 µM and 2.22 µM.
Under `CCCCCCCCCCOC(=O)Cn1c(COc2ccc(C)cc2)[n+](C)c2ccccc21` stands 3.37 µM; under `O=C(CSCc1ccccc1)N/N=C/c1ccccc1OCc1ccccc1`, 46.6 µM; under `C#CCOCCOCCOCCNc1nc(N2CCN(C(=O)CCCCCCCCCCNC(=O)[C@H](CCCCN)n3cc(C[C@@H](C)CC)nn3)CC2)nc(N2CCN(C(=O)CCCCCCCCCCNC(=O)[C@H](CCCN=C(N)N)n3cc(C[C@@H](C)CC)nn3)CC2)n1`, 3.88 µM.
Under `Cc1cc(N/N=C/c2cccc(Cl)c2)nc(NCc2ccccc2)n1` stands 23.5 µM; under `CCCCCNCC(=O)Nc1cccc(C(=O)Nc2cccc(C(F)(F)F)c2)c1`, 12.4 µM; under `CCC(C)(C)c1ccc(OCCCC[n+]2ccc(C)cc2)c(C(C)(C)CC)c1`, 1.48 µM.
